Results as given in article PMC3677594, “Characterization of a novel Entamoeba histolytica strain from Burkina Faso, Africa, possessing a unique hexokinase-2 gene” (Parasite, 2011).
Positions count from the first letter of the chain named.

Key:
Type in all cases: biochemical
HXK-1 [1] = target: T1, HXK-1 (Entamoeba dispar, UniProt O09487); assay: in-gel glucokinase activity stain after IEF or starch gel; settings: ATP; G6PDH-coupled, NADPH-formazan read-out
T1 construct: gene hxk1; native full-length enzyme in freeze-thaw lysate, resolved by IEF or starch gel

HXK-2 [2] = target: T2, HXK-2 (Entamoeba dispar, UniProt O09488); assay: as above; settings: ATP; G6PDH-coupled, NADPH-formazan read-out
T2 construct: gene hxk2; native full-length enzyme in freeze-thaw lysate, resolved by IEF or starch gel
T2 sequence (O09488 1-445): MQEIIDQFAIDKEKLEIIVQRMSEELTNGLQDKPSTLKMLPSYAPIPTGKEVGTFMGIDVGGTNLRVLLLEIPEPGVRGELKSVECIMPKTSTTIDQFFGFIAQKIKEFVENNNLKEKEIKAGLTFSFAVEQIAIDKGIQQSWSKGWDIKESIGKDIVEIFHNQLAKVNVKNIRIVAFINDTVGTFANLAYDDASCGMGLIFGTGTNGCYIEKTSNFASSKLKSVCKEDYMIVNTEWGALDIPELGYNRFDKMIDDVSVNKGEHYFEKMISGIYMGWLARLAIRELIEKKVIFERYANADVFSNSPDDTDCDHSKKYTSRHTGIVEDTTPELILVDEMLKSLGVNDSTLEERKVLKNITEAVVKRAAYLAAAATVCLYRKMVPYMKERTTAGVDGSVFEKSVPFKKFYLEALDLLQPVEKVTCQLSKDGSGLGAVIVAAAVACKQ

HXK-1 [3] = target: T3, HXK-1 (Entamoeba histolytica, UniProt A0A8U0WP42); assay: as above; settings: ATP; G6PDH-coupled, NADPH-formazan read-out
T3 construct: gene EHI_098290; native full-length enzyme in freeze-thaw amoeba lysate, resolved by IEF or starch gel
T3 sequence (A0A8U0WP42 1-445): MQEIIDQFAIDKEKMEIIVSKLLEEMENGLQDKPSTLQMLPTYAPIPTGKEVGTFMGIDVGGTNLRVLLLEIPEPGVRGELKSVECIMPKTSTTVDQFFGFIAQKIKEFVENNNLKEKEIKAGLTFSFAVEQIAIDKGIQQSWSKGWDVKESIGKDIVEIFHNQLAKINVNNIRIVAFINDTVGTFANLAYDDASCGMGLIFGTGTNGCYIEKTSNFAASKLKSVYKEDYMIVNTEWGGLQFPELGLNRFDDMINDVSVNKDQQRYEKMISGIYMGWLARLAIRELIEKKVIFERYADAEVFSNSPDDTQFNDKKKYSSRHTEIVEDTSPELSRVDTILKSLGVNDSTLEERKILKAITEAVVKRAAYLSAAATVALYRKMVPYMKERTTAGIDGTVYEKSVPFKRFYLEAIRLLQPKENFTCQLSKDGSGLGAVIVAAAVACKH

HXK-1 [4] = target: T4, HXK-1 (Entamoeba nuttalli, UniProt C5NNG5); assay: as above; settings: ATP; G6PDH-coupled, NADPH-formazan read-out
T4 construct: native full-length enzyme in freeze-thaw lysate, resolved by IEF or starch gel
T4 sequence (C5NNG5 1-445): T3 sequence (A0A8U0WP42 1-445) with E13G, I153V, I168V

HXK-2 [5] = target: T5, HXK-2 (Entamoeba nuttalli, UniProt C5NNG6); assay: as above; settings: ATP; G6PDH-coupled, NADPH-formazan read-out
T5 construct: gene ENUP19_0206G0024; native full-length enzyme in freeze-thaw lysate, resolved by IEF or starch gel
T5 sequence (C5NNG6 1-445): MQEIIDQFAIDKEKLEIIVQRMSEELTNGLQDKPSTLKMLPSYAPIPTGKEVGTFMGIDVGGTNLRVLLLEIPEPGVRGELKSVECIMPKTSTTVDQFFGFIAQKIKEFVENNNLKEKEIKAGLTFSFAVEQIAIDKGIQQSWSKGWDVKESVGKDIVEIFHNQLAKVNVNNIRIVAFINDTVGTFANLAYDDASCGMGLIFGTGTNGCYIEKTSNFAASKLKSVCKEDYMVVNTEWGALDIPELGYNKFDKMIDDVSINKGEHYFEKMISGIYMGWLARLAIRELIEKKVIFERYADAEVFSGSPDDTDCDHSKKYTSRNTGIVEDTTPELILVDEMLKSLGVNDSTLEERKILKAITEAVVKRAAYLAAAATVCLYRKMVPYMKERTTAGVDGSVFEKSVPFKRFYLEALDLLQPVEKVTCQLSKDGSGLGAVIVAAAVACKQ

HXK-2 [6] = target: T6, HXK-2 (Entamoeba histolytica, UniProt A0A8U0WP47); assay: as above; settings: ATP; G6PDH-coupled, NADPH-formazan read-out
T6 construct: gene EHI_098560; native full-length enzyme in freeze-thaw lysate, resolved by IEF or starch gel
T6 sequence (A0A8U0WP47 1-445): T5 sequence (C5NNG6 1-445) with V153I, V168I, V232I, I354M

HXK-1 [7] = target: T1, HXK-1; assay: in-gel mannokinase activity stain after IEF; settings: ATP; coupled with MPI, GPI and G6PDH XV, or directly with G6PDH II
HXK-2 [8] = target: T2, HXK-2; assay: in-gel mannokinase activity stain after IEF; settings: ATP; coupled with MPI, GPI and G6PDH XV, or directly with G6PDH II
HXK-1 [9] = target: T4, HXK-1; assay: in-gel mannokinase activity stain after IEF; settings: ATP; coupled with MPI, GPI and G6PDH XV, or directly with G6PDH II
HXK-2 [10] = target: T5, HXK-2; assay: in-gel mannokinase activity stain after IEF; settings: ATP; coupled with MPI, GPI and G6PDH XV, or directly with G6PDH II
HXK-1 [11] = target: T3, HXK-1; assay: in-gel mannokinase activity stain after IEF; settings: ATP; coupled with MPI, GPI and G6PDH XV, or directly with G6PDH II
HXK-2 [12] = target: T6, HXK-2; assay: in-gel mannokinase activity stain after IEF; settings: ATP; coupled with MPI, GPI and G6PDH XV, or directly with G6PDH II

T1 sequence (O09487 entry or part of it): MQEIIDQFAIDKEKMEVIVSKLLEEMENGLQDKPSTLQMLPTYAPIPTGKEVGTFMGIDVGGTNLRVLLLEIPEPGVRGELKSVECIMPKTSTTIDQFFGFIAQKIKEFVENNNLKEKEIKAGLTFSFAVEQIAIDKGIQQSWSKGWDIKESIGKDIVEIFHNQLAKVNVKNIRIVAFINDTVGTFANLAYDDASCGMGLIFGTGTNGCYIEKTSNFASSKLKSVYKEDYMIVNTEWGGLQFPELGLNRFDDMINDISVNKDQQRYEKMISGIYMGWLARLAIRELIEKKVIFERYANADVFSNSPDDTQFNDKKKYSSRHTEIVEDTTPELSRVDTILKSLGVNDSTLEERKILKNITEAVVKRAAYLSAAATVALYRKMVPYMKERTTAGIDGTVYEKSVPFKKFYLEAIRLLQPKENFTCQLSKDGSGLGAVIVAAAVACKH

SMILES	in-gel glucokinase activity stain after IEF or starch gel (HXK-1 [1])	in-gel glucokinase activity stain after IEF or starch gel (HXK-2 [2])	in-gel glucokinase activity stain after IEF or starch gel (HXK-1 [3])	in-gel glucokinase activity stain after IEF or starch gel (HXK-1 [4])	in-gel glucokinase activity stain after IEF or starch gel (HXK-2 [5])	in-gel glucokinase activity stain after IEF or starch gel (HXK-2 [6])	in-gel mannokinase activity stain after IEF (HXK-1 [7])	in-gel mannokinase activity stain after IEF (HXK-2 [8])	in-gel mannokinase activity stain after IEF (HXK-1 [9])	in-gel mannokinase activity stain after IEF (HXK-2 [10])	in-gel mannokinase activity stain after IEF (HXK-1 [11])	in-gel mannokinase activity stain after IEF (HXK-2 [12])
OC[C@H]1OC(O)[C@H](O)[C@@H](O)[C@@H]1O (stereo partly drawn) [glucose]	substrate specificity of the HXKs of the six strains of Entamoeba spp. to phosphorylated glucose	substrate specificity of the HXKs of the six strains of Entamoeba spp. to phosphorylated glucose	substrate specificity of the HXKs of the six strains of Entamoeba spp. to phosphorylated glucose	substrate specificity of the HXKs of the six strains of Entamoeba spp. to phosphorylated glucose	substrate specificity of the HXKs of the six strains of Entamoeba spp. to phosphorylated glucose	substrate specificity of the HXKs of the six strains of Entamoeba spp. to phosphorylated glucose	–	–	–	–	–	–
OC[C@H]1OC(O)[C@@H](O)[C@@H](O)[C@@H]1O (stereo partly drawn) [mannose]	–	–	–	–	–	–	no differences in mannokinase activity were observed between the isoenzymes HXK-1 and HXK-2	no differences in mannokinase activity were observed between the isoenzymes HXK-1 and HXK-2	no differences in mannokinase activity were observed between the isoenzymes HXK-1 and HXK-2	no differences in mannokinase activity were observed between the isoenzymes HXK-1 and HXK-2	no differences in mannokinase activity were observed between the isoenzymes HXK-1 and HXK-2	no differences in mannokinase activity were observed between the isoenzymes HXK-1 and HXK-2
